Source: EP2251010A1, “Use of thiabendazole and derivatives thereof for the therapy of neurological conditions” (Sygnis Bioscience GmbH & Co. KG, priority 2009, dated 2010)

How the values were obtained:
SH-SY5Y cells = assay: In vitro anti-apoptosis assay (Caspase-Glo 3/7) on SH-SY5Y cells with staurosporine; format: cell-based, human; settings: 5h, staurosporine alone = 100 %, sham 10 %
Text: Neuroprotection is attainable via the inhibition of apoptosis of affected neurons. The anti-apoptotic effect of thiabendazole and its derivatives can be assayed in vitro by measuring the caspase-3 and caspase-7 activities. These members of the cysteine aspartic acid-specific protease (caspase) family play key effector roles in apoptosis in mammalian cells. Cortical neurons have to be isolated and subsequently cultivated in a suitable culture medium. […] Parallel approaches with staurosporine alone and sham treatment of the cells serve as […]. The assay allows evaluating whether the test compound can compensate either completely or partially for the apoptotic effect of staurosporine.
The neuroprotective effect of compounds can be assayed in vitro by measuring caspase-3 and caspase-7 activities. These members of the cysteine aspartic acid-specific protease (caspase) family play a key effector role in apoptosis in mammalian cells.
The human neuroblastoma cell-line SH-SY5Y (American Type Culture Collection) maintained in DMEM with high glucose supplemented with 20% FBS was used for the apoptosis assay. Alternatively one can analyse the apoptosis of primary cortical neurons which can be isolated from E18 rats and subsequently cultivated in suitable culture medium. 2,5 x 10^4 SH-SY5Y cells were seeded in 96-well plates and stimulated 24 h later with thiabendazole or vehicle in the presence of the apoptosis inducing compound staurosporine (0,1 µM, Calbiochem). After 5h incubation at 37 °C, caspase-Glo 3/7 reagent (Promega) containing luciferase and luminogenic substrate was added to the cells. The cleavage of the substrate by caspase-3 and caspase-7 was detected 30 min later using a luminometer (Berthold Technologies, Mithras LB 940). The Luminescence which is proportional to the amount of caspase activity serves as a measure for the apoptosis of the treated neurons. Thiabendazole was tested in a range from 0,8 µM to 100 µM final concentration.
Incubation with staurosporine (SP; 0,5 µM) alone served as positive control and incubation with vehicle (sham) served as negative control.

SH-SY5Y neuronal cells = assay: In vitro viability assay (constitutive Renilla luciferase reporter); format: cell-based, human
Protocol: The viability assay allows for further assessment of test compounds regarding their effect on cells such as neurons. Therefore, a stably transfected cell line (e.g. SH-SY5Y cells) with a reporter construct (e.g. a luciferase construct) has to be incubated with the test compound and in parallel with positive and negative controls (e.g. staurosporine and sham, respectively). Subsequently, the signal generated by the reporter construct serves as a readout for the viability of the cells in the presence of the test compound. The assay enables the evaluation of potential neurotoxic effects of the test compound itself.
The effect of a compound on the viability of neuronal cells can be assayed in vitro by measuring the survival of neuronal cells transfected with a reporter construct under a constitutive promoter. SH-SY5Y neuronal cells stably transfected with a Renilla luciferase construct under the SV40 promoter were seeded in 96-well plates at a density of 2,5 x 10^4 cells per well. Following overnight incubation the cells were stimulated with medium containing thiabendazole or vehicle. Staurosporine (0,5 µM) served as positive control. The Renilla luciferase activity was measured 5 h later using a luminometer (Berthold Technologies, Mithras LB 940). Thiabendazole was tested in a range from 0,8 µM to 50 µM final concentration.
Analogously, thiabendazole (A; Sigma) and various derivatives thereof (2-(1,3-thiazol-5-yl)-benzimidazole (B; ChemBridge Corporation), 4-(benzimidazol-2-yl)-1,3-thiazol-2-amine (C; ChemBridge Corporation), 2-(2-thienyl)-benzimidazole (D; ChemBridge Corporation), or 2-(1,3-thiazol-4-yl)-benzimidazole-5-ol (E; Witega GmbH), Fig. 8) have been analysed for their effect on the viability of neuronal cells. The compounds were tested in a final concentration of 1 µM and of 10 µM.

[1] = pH 7.0; cited from earlier work

## c1ccc2[nH]c(-c3cscn3)nc2c1 [thiabendazole, 2-(4-thiazolyl)-benzimidazole]
SH-SY5Y cells; 0,8 µM thiabendazole plus 0,1 µM staurosporine
  staurosporine induced apoptosis (caspase-3 and caspase-7 activity): 60%
SH-SY5Y cells; 25 µM thiabendazole plus 0,1 µM staurosporine
  staurosporine induced apoptosis (caspase-3 and caspase-7 activity): 10%
SH-SY5Y cells; 50 µM thiabendazole plus 0,1 µM staurosporine
  staurosporine induced apoptosis (caspase-3 and caspase-7 activity): 4%
SH-SY5Y cells; 100 µM thiabendazole plus 0,1 µM staurosporine
  staurosporine induced apoptosis (caspase-3 and caspase-7 activity): 3%
SH-SY5Y cells; 1,6 µM thiabendazole plus 0,1 µM staurosporine
  staurosporine induced apoptosis (caspase-3 and caspase-7 activity): 59%
SH-SY5Y cells; 3,1 µM thiabendazole plus 0,1 µM staurosporine
  staurosporine induced apoptosis (caspase-3 and caspase-7 activity): 44%
SH-SY5Y cells; 6,3 µM thiabendazole plus 0,1 µM staurosporine
  staurosporine induced apoptosis (caspase-3 and caspase-7 activity): 28%
SH-SY5Y cells; 12,5 µM thiabendazole plus 0,1 µM staurosporine
  staurosporine induced apoptosis (caspase-3 and caspase-7 activity): 19%
SH-SY5Y neuronal cells; 0,8 µM to 50 µM final concentration, 5 h, Fig. 3
  viability of the neuronal cells (Renilla luciferase activity): did not show any significant effect on the viability
SH-SY5Y neuronal cells; final concentration of 1 µM and of 10 µM, Fig. 7
  viability of neuronal cells (Renilla luciferase activity): did not show any significantly reduced viability
[1]
  solubility in water: approximately 50 mg/l
